Earlier results as cited in patent publication US20170027908A1, “Pharmaceutical Composition” (CIPLA Limited, priority 2011, published 2017).

Tests used:
[1] = tested on: airway hyperresponsiveness; details: as compared to fluticasone propionate
[2] = in vivo

elimination half life [2]: 15.1 h
SMILES: C[C@@H]1C[C@H]2[C@@H]3C[C@H](F)C4=CC(=O)C=C[C@]4(C)[C@@]3(F)[C@@H](O)C[C@]2(C)[C@@]1(OC(=O)c1ccco1)C(=O)SCF [fluticasone furoate]
prolonged protection against airway hyperresponsiveness [1]: up to 26 hours
